Experimental data published in patent US20080182978A1, “ANTI-NGF ANTIBODIES AND METHODS USING SAME” (RINAT NEUROSCIENCE CORP, priority 2002, published 2008).

Tests used:
[1] = tested on: TGF-β1; experiment: CFA arthritis rats, circulating TGF-β1 in serum (ELISA); assay type: in vivo, rat; settings: D24; for serum TGF-β1 level: arthritic rats, E3 1 mg/kg or 911 10 mg/kg i.v. D14+D19, indomethacin 3 mg/kg p.o.
Method: On Day 24 (after paw volume and arthritis index measurements and test vocalization), under general anaesthesia using isoflurane (in a mixture of oxygen and nitrous oxide), the blood samples (about 800-1000 μl) was collected by capillary action with a micropipette from retroorbital sinus.
Measurement of circulating TGF-β1 (groups 1-2-3-4-5): A part of blood sample was collected in micro tubes for serum preparation at ambient temperature. Following sample collection, blood was mixed and allowed to clot for 30 minutes prior to the centrifugation. The tubes were centrifuged at about 6000 g for 3 minutes. Each serum sample (at least 100 μL, except for rat #52 and #53) was aliquoted and stored at −20° C. until sample activation for TGF-β1 analysis. These aliquots (50 vials) were kept for a period of 6 months starting from the end of the study. […] TGF-β1 levels were measured using human TGF-β1 ELISA kit (ref. DB100, Batch 212258 and 213610, R&D Systems—France).
All results were reported as Mean ±S.E.M. of 10 rats in each group at each time point. Paw volume was expressed in ml calculated from the mean value of the right and left paw volume. Arthritis index was calculated from the sum of the score obtained for each of the 4 paws. The nociceptive response was evaluated by the intensity of the level of vocalization recorded for each animal (mean of 4 values: 2 times/paw) in mV. The percentage inhibition of the nociceptive response was calculated from the mean value of the vehicle-treated arthritic group [(mean value of vehicle-treated arthritic group−mean value of treated arthritic group/mean value of vehicle-treated arthritic group)*100]. […] Radiological index for each parameter (demineralization, erosions, periostal reaction, soft tissue damage, space joint, osteogenesis deformity) and total radiological index (total score) were calculated from the sum of the scores obtained for each parameter. […]

[2] = tested on: complete Freund's adjuvant (CFA)-induced chronic arthritis; experiment: CFA-induced chronic arthritis in rats, nociceptive response (vocalization test, Example 8); assay type: in vivo, rat; settings: for nociceptive response (vocalization): arthritic rats, E3 1 mg/kg or 911 10 mg/kg i.v. D14+D19, indomethacin 3 mg/kg/day p.o. 10 days
Method: […]. Analgesic effects of E3 and 911 were evaluated by the measurement of nociceptive response. Anti-inflammatory effects were evaluated by paw volume, arthritis index (inflammation score), body and hindpaws weight. […].
Five groups of 10 animals (5-weeks old male Lewis rats-LEWIS Lew/Ico, from Charles River Laboratories—Belgium) each were included in this study: Group 1: non arthritic rats/saline (vehicle), i.v. bolus, n=10; Group 2: arthritic rats/saline (vehicle), i.v. bolus, n=10; Group 3: arthritic rats/Indomethacin 3 mg/kg, p.o daily over 10 days, n=10; […]; Group 5: arthritic rats/911, 10 mg/kg, i.v. bolus, n=10. The doses were expressed in terms of free active substance (mg/kg). E3 and 911 were extemporaneously prepared in saline from the stock solution to the desired concentration. […]. All diluted solutions (before i.v. injection) were sterilized using a sterile filter unit of 0.20.μm. pH and osmolarity values of diluted solutions were measured before each i.v. injection. Before the first i.v., osmolarity (mosm/L) for saline, E3, and 911 were 278, 269, and 308 respectively; pH for saline, E3, and 911 were 5.93, 6.76, 6.71 respectively. Before the second i.v., osmolarity (mosm/L) for saline, E3, and 911 were 280, 270, and 309 respectively; pH for saline, E3, and 911 were 5.86, 6.72, and 6.59 respectively.
E3 or 911 or saline were administered by i.v. bolus injection on Day 14 and Day 19 after arthritis induction in a coded and random order with a volume of 5 mL/kg. The non arthritic group was given by i.v. bolus injection of saline on Day 14 and Day 19 with a volume of 5 mL/kg. Indomethacin was extemporaneously prepared in 1% methylcellulose. Indomethacin was administered by oral route (p.o.) once daily over 10 days from Day 14 to Day 23 after arthritis induction in a coded and random order with a volume of 10 mL/kg.
On Day 0 (D 0), arthritis was induced in 70 rats by intradermal injection into the tail of 0.05 ml of a Mycobacterium butyricum suspension.
The nociceptive response was evaluated by gentle flexion of the right and left hindpaw repeatedly 2 times at intervals of 4 to 5 sec with a finger of the operator (arthritic rats). The intensity of the level of vocalization was recorded for each animal for each hindpaw (2 times: on right hindpaw: s1 and s3; 2 times: on left hindpaw: s2 and s4). This evaluation was performed at the following times (after induction of arthritis): Day 14 (before i.v. bolus or p.o. administration); Day 18 (before the second i.v. bolus injection or 1 hr after p.o. administration); and Day 24 (5 days after the last i.v. bolus injection or 24 h after the last p.o. administration). All measurements were performed between 9:00 and 12:00 am except at D 14 (7:30-9:00 am) and D 24 (7:30-9:00 am).
All results were reported as Mean ±S.E.M. of 10 rats in each group at each time point. Paw volume was expressed in ml calculated from the mean value of the right and left paw volume. Arthritis index was calculated from the sum of the score obtained for each of the 4 paws. The nociceptive response was evaluated by the intensity of the level of vocalization recorded for each animal (mean of 4 values: 2 times/paw) in mV. The percentage inhibition of the nociceptive response was calculated from the mean value of the vehicle-treated arthritic group [(mean value of vehicle-treated arthritic group−mean value of treated arthritic group/mean value of vehicle-treated arthritic group)*100]. Body weight was expressed in grams. Hindpaws (left and right) weight was expressed in grams. Cytokine levels (IL-6, IL-1β, TNF-α and TGF-β1) of each hind paw was expressed in pg/ml. Circulating levels of TGF-β1 was expressed in pg/ml. Radiological index for each parameter (demineralization, erosions, periostal reaction, soft tissue damage, space joint, osteogenesis deformity) and total radiological index (total score) were calculated from the sum of the scores obtained for each parameter. […]

[3] = E3 1 mg/kg or 911 10 mg/kg i.v. D14+D19, indomethacin 3 mg/kg/day p.o., D24
[4] = E3 1 mg/kg or 911 10 mg/kg i.v., indomethacin 3 mg/kg/day p.o., D14
[5] = E3 1 mg/kg or 911 10 mg/kg i.v., indomethacin 3 mg/kg/day p.o., D18

Row | Molecule | serum TGF-β1 level [1] [pg/mL] | decrease of serum TGF-β1 level compared to vehicle-treated arthritic group ([1]; indomethacin 3 mg/kg/day p.o. 10 days) | % inhibition of nociceptive response vs vehicle-treated arthritic group [2, 3] [%] | decrease of nociceptive response vs vehicle-treated arthritic group [2, 3] [mV] | % inhibition of nociceptive response vs vehicle-treated arthritic group [2, 4] [%] | % inhibition of nociceptive response vs vehicle-treated arthritic group [2, 5] [%] | decrease of nociceptive response vs vehicle-treated arthritic group [2, 5] | nociceptive response (vocalization) ([2]; D14 (before dosing)) [mV] | nociceptive response (vocalization) ([2]; D18) [mV] | nociceptive response (vocalization) ([2]; D24) [mV] | analgesic effects in arthritis model (conclusion) ([2]; E3 1 mg/kg i.v., 911 10 mg/kg i.v., D14+D19)
1 | COc1ccc2c(c1)c(CC(=O)O)c(C)n2C(=O)c1ccc(Cl)cc1 [Indomethacin, reference compound] | 57222.2 ± 3194.1 | about 1.5 times | 74 | ~−4353 | 0 | 71 | about −3768 mV | 4386±235 | 1511±398 | 1552±508 | 
2 | E3: humanized, affinity matured anti-NGF antagonist antibody; variable regions SEQ ID NO:1 and 2; human IgG2a (A330P331 to S330S331), kappa (antibody, V domains shown, human IgG2a constant (A330S/P331S) and kappa constant missing) VH: QVQLQESGPGLVKPSETLSLTCTVSGFSLIGYDLNWIRQPPGKGLEWIGIIWGDGTTDYNSAVKSRVTISKDTSKNQFSLKLSSVTAADTAVYYCARGGYWYATSYYFDYWGQGTLVTVS VL: DIQMTQSPSSLSASVGDRVTITCRASQSISNNLNWYQQKPGKAPKLLIYYTSRFHSGVPSRFSGSGSGTDFTFTISSLQPEDIATYYCQQEHTLPYTFGQGTKLEIKRT | 69408.8 ± 3926.7 |  | 100 | ~−5905 | 0 | 79 | about −4167 mV | 4644±367 | 1112±401 | 0±0 | strong analgesic effects
